Data set [1] deals with MIN6 cells. Kind of data set: Glucose-stimulated insulin secretion in MIN6 cells (GSIS). The class given is cell-based, mouse. As for the experimental part: MIN6 cells were seeded in a 24-well plate at an appropriate concentration, and after continued culture until cell confluence exceeded 80%, administration was carried out in the following groups: normal control group (Con), ADD group (ADD-16 was administered at a concentration of 100 μmol/L, 30 μmol/L, 10 μmol/L, 3 μmol/L, 1 μmol/L, 0.3 μmol/L, respectively), TAK875 group (administered at a concentration of 10 μmol/L, 3 μmol/L, 1 μmol/L, respectively), with 6 replicates per group. Incubation was continued for 24 h after group dosing, media was aspirated and gently rinsed 2 times with a sugar-free KRB buffer. After rinsing, the sugar-free KRB buffer was added and incubated at 37° C. for 10 min. At the end of the incubation, the buffer was aspirated and each well was exhausted as much as possible. Each group was dosed with 16.7 mmol/L glucose in a KRB buffer and incubated at 37° C. for 1 hour. All media in the wells was aspirated after 1 h, centrifuged at 2000 rmp/min for 20 min, and the supernatant was collected and stored at −20° C. The insulin content was measured for each group following the instructions of the mouse insulinase ELISA assay kit.
Insulinase ELISA assay: the supernatant of each set of media was taken and processed according to the procedure of Table 1:
The final mixture was mixed well with shaking and the OD was read on a microplate reader at 450 nm. The insulin content of each group was calculated.

The test system of a further data set is STZ-induced T2DM rats. Put plainly: Oral glucose tolerance test (OGTT) in T2DM rats. The class given is in vivo, rat. The note with it: artificially induced T2DM rats. As for the experimental part: 150 male SD rats, housed in cages in a clean constant temperature (23±2° C.) and humidity (55±10%) animal house, were manually adjusted on a daily 12 h/12 h diurnal light cycle with free access to water. After 3 days of adaptive feeding, 150 rats were randomly divided into normal and model groups. The normal (Con, n=15) group of rats remained on raw chow and the model group (n=135) of rats were given high fat high sugar chow. All rats were fed twice daily and the amount of feed was adjusted as needed to ensure adequate feed. After 8 weeks of group feeding, the model group rats were given an intraperitoneal injection of 25 mg/kg STZ solution with a 12 h fast prior to injection. After injection, feeding was continued as in the original method, blood was taken from the tail vein at 72 h for blood glucose measurement, and rats with fasting blood glucose levels ≥11.1 mmol/L on different days were screened for successful artificial induction of T2DM and administered in groups for the next experiment. 135 rats with successful modeling were randomly divided into 9 groups: […] […] Relevant indicators of lipid metabolism were measured after the end of the study. At the final week of the Oral Glucose Tolerance Test (OGTT) test, each group of rats was fasted from water 16 h after gavage administration and the fasting blood glucose value (as 0 min) was measured for each rat. […]

The subject of a further data set is ZDF rat islet tissue. Put plainly: Western Blot of insulin signaling related molecules in ZDF rat islet tissue. The class given is in vivo. Particulars: compared to TD group, P<0.001, most pronounced at 10 mg/kg. For orientation: In western blotting, separated proteins are transferred to a membrane and probed.
Data set [2] relates to MIN6 cells. Put plainly: Western Blot / immunofluorescence of insulin signaling related molecules in insulin-resistant MIN6 cells. The class given is cell-based, mouse. As for the experimental part:
MIN6 cells were seeded in culture dishes at the appropriate density and cultured as described in step 2.1 to a confluency of about 80%. Cells were divided into the following 5 groups: (1) normal control group (Con): cultured with blank 1640 medium; (2) insulin resistance model panel (IR): treatment with 0.125 mmol/L PA for 24 h to induce establishment of a MIN6 cell insulin resistance model; (3) 3 μmol/L ADD-16 administration group (ADD I): 3 μmol/L ADD-16 intervention was given for 24 h after successful establishment of the insulin resistance model; (4) 10 μmol/L ADD-16 administration group (ADD II): 10 μmol/L ADD-16 intervention was given for 24 h after successful establishment of the insulin resistance model; (5) TAK875 control group (TAK875): 10 μmol/L TAK875 was administered as a positive control drug intervention for 24 h after successful establishment of the insulin resistance model. At the end of the group administration, groups of cells were harvested for WB or IF experiments.

The conditions of data set [3]: n = 6.

`CC1(C)CC(=O)C2=C(C1)NC1=C(C(=O)CC(C)(C)C1)C2c1ccc(OCc2ccc(C(=O)O)cc2)c(Br)c1` [ADD-16]: the “insulin secretion compared to the Con group (in words)” value in the data set with MIN6 cells [1] (100 μmol/L, 24 h) is reported as “decreased insulin secretion”. Moreover, in the data set on MIN6 cells [1] (24 h, 16.7 mmol/L glucose, concentration dependent), the “glucose-stimulated insulin secretion (in words)” value is on record as “promote glucose-stimulated insulin secretion”. For the same compound, in the data set with MIN6 cells [1] (same concentrations), the “insulinotropic effect compared with TAK875 (in words)” value is recorded as “significantly better than TAK875”. Also, in the data set on STZ-induced T2DM rats, the “glucose tolerance (OGTT, in words)” value is given as “increase glucose tolerance”. Also, the “expression of insulin signaling-related molecules, Western Blot (in words)” value in the data set on ZDF rat islet tissue is “upregulate the expression of GPR40, PGC-1α, P-P38, P-EP300, PPARγ, P-AKT, PI3K, IRS1 and GLUT4”; in the data set with MIN6 cells [2] (insulin-resistant MIN6 cells, 24 h, P<0.001) it was “upregulate GPR40, PGC-1α, P-P38, P-EP300, PPARγ, P-AKT, PI3K, IRS1 and GLUT4 expression”. The “GPR40 expression, immunofluorescence staining (in words)” value with MIN6 cells [2] (MIN6 cells) is on record as “upregulate GPR40 expression”. The LD50 in data set [3] came out at 123.2 µmol/L.

The record behind these values is patent publication US20230124720A1, “APPLICATION OF ACRIDINEDIONE COMPOUND IN PREPARATION OF ANTI-DIABETIC DRUGS” (THE FOURTH MILITARY MEDICAL UNIVERSITY, priority 2020, published 2023).
